Measurements taken from US20050065114A1, “Therapeutical treatment with oligo-beta- (1,3) -glucans, drugs used in said treatment” (priority 2003, published 2005).
Values joined by “and” are separate entries in the source; they are usually repeats but may differ in a detail not shown here. Equal entries are not always repeated.

Key:
Format in all cases: in vivo, Balb/c mice
[1] = system: cells from peripheral blood (monocytes, granulocytes); assay: Phagocytosis of HEMA particles by cells from peripheral blood after intraperitoneal injection; conditions: for % of phagocytosing granulocytes / % of phagocytosing monocytes: peripheral blood 24 hrs after i.p. injection
Procedure: A group of Balb/c mice (Jackson laboratory, Bar Harbor, ME, USA) has been injected intraperitoneally with either PBS (Control; Sigma, St. Louis, Mo., USA), Laminaritetraose or Laminaripentaose. 24 hrs later, mice were sacrified, peripheral blood from the orbital plexus was collected into heparine (5 IU/ml) (Sigma).
After counting, a test of phagocytosis of HEMA particles (synthetic microspheres prepared from 2-hydroxyethylmethacrylate copolymer) was performed as described in: Rembaum et al., 1976, Vetvicka et al. 1982, Bilej et al., 1989.
0.1 ml of heparinized fresh blood was added to 0.05 ml of diluted HEMA particles (5×10^8/ml) and incubated for 60 minutes at 37° C. with occasional gentle agitation.
After the end of incubation, the cell suspension was smeared over microscope slides. Smears were evaluated under the optical microscope after Accustain (modified Wright stain, Sigma) staining.
Cells with at least three engulfed particles were considered to be positive.

peritoneal macrophages = assay: Phagocytosis of HEMA particles by cells from peritoneal cavity after intraperitoneal injection; conditions: for % of phagocytosing macrophages: peritoneal cells 24 hrs after i.p. injection
Procedure: A group of Balb/c mice (Jackson laboratory, Bar Harbor, Me., USA) has been injected intraperitoneally with either PBS (control), Laminaritetraose or Laminaripentaose. 24 hrs later, mice were sacrificed, peritoneal cells were collected into Hanks medium (Sigma).
After counting the cells in hemocytometer, the peritoneal cells were diluted to lxlO7 cells in RPMI 1640 medium (Sigma) with 5% fetal calf serum (Hyclone, Logan, Utah, USA).
2×10^6 cells in 0.2 ml of RPMI 1640 medium supplemented with 5% fetal calf serum were mixed with the same volume of HEMA particles (5×10^8/ml).
The suspension was incubated for 60 minutes at 37° C. with occasional agitation. Incubation was terminated by centrifugation (150 g for 5 minutes) and the pellet was resuspended.
Macrophages with ingested particles were scored under the optical microscope in smears after Accustain (modified Wright stain, Sigma) staining.
Cells with six or more engulfed particles were considered to be positive.

[2] = system: peripheral blood cells (monocytes, lymphocytes, granulocytes); assay: Differential count in blood; conditions: for % of granulocytes / % of lymphocytes / % of monocytes: peripheral blood 24 hrs after i.p. injection
Procedure: (§1) Using the same experimental groups as described above in Example 3, two extra microscopic slides from each experimental sample were prepared. After Accustain (modified Wright stain, Sigma) staining, the slides were evaluated using the optical microscope for presence of individual types of cells, i.e. monocytes, lymphocytes and granulocytes.

[3] = system: peritoneal cells (macrophages, lymphocytes, mast cells); assay: Differential count in peritoneal cells; conditions: for % of lymphocytes / % of macrophages / % of mast cells: peritoneal cells 24 hrs after i.p. injection
Procedure: as §1, with “4,” for “3,”, “macrophages,” for “monocytes,”, “mast cells.” for “granulocytes.”

TNF-alpha = assay: Cytokine level in peripheral blood: TNF-alpha in serum by OptEIA Mouse TNF-alpha ELISA; conditions: for TNF-alpha level (Table 6, same experiments as Table 5): 250 μg/mouse, unit not given in Table 6 (Table 5: pg/ml)
Procedure: Balb/c mice were intraperitoneally injected with 50 μg of Laminaritetraose, Laminaripentaose, Laminarin or Lentinan (purchased from NIH, Bethesda, Md., USA) in PBS.
After various time intervals (30, 60 and 90 minutes, respectively), after the injection of Laminaritetraose, Laminaripentaose, Laminarin, Lentinan only, the mice were killed and blood was collected in Eppendorf tubes.
Subsequently, the serum of the collected blood was separated, collected and stored at −80° C. for no more than 1 week.
The level of TNF-alpha in the serum samples was evaluated using a commercial kit marketed as OptEIA Mouse TNF-alpha (Mono/Mono) Set by the Company Pharmingen, San Diego, Calif., USA); the manufacturer's instructions were followed.
In connection with the experiments carried out by Applicants, Balb/c mice were intraperitoneally injected with various doses (50, 100, and 250 μg) of Soluble laminarin and Lentinan (from NIH, Bethesda, Md., USA) in PBS.
Control mice were treated with PBS only. […]
Subsequently, the serum was prepared, collected and stored at −80° C. for no more than 1 week.
The level of TNF-alpha in serum samples was evaluated using a commercial kit marketed as OptEIA Mouse TNF-alpha (Mono/Mono) Set by the Company Pharmingen, San Diego, Calif., USA); the manufacturer's instructions were followed.
In that respect, The wells of 96-well plates were coated with 0.1 ml/well of capture antibody (provided in the above kit) diluted in coating buffer (also provided in the above kit); the expression “capture antibody” designates first antibody used for coating of wells; this antibody captures the tested cytokines from the solution; in this assay it was anti-mouse-TNF-alpha monoclonal antibody.
The plates were sealed and incubated overnight at 4° C.
Individual wells were emptied by aspiration and washed 3 times with over 300 el/well of wash buffer (also provided in the kit).
Reaction was blocked with 200 el/well of assay dilutant diluent (also provided in the kit) and by incubation for 60 minutes at room temperature.
Again, individual wells were emptied by aspiration and washed 3 times with over 300 el/well of the same wash buffer.
Standards (also provided in the kit) and samples of serum were diluted in assay diluent (also provided in the kit) and pipetted (100 μl/well) in appropriate wells; as far as the dissolution rate is concerned standards (part of the kit) were diluted according to the instructions into following concentrations: 1000 pg/ml, 500 pg/ml, 250, 125, 62.5, 31.3, and 15.6 pg/ml.
The plates were sealed and incubated for 60 minutes at room temperature. Individual wells were aspirated and washed 3 times with over 300 μl/well of the same wash buffer. A quantity of 100 μl/well of a working detector (antibody-avidin-HRP conjugate also provided in the kit) was added into each well.
The plates were sealed with plastic foils and incubated for 60 minutes at room temperature. Individual wells were emptied by aspiration and washed 3 times with over 300 μl/well of same wash buffer.
A quantity of 100 μl/well of substrate solution (also provided in the kit) was added to each well and the plates were incubated for 30 minutes in the dark at room temperature; “substrate solution” is formed by mixing a substrate reagent A containing hydrogen peroxide and Substrate reagent B containing 3,3′,5,5′-tetramethylbenzidine in organic solvent; when mixed together, the reagent reacts with peroxidase-labeled conjugates to develop a blue color.
A quantity of 50 μl/well of stop solution provided in the kit and adapted to stop the reaction was added to each well and the optical density was determined using a STL ELISA reader (marketed by Tecan U.S., Research Triangle Park, N.C.) at 450 nm with a correction at 570 nm.
The concentration of TNF-alpha, in pg/ml, in the blood of the mice treated as hereabove disclosed has been determined at the following moments: 30, 60 and 90 minutes after the injection of Laminaritetraose, Laminaripentaose, Lentinan and control. […]

[4] = individual values, cells with at least three engulfed HEMA particles positive
[5] = mean, at least three engulfed HEMA particles

With OC[C@H]1O[C@@H](O[C@@H]2[C@@H](O)[C@H](O[C@@H]3[C@@H](O)[C@H](O[C@@H]4[C@@H](O)[C@H](O)O[C@H](CO)[C@H]4O)O[C@H](CO)[C@H]3O)O[C@H](CO)[C@H]2O)[C@H](O)[C@@H](O)[C@@H]1O [Laminaritetraose, β-D-glucopyranosyl-(1→3)-β-D-glucopyranosyl-(1→3)-β-D-glucopyranosyl-(1→3)-β-D-glucopyranose] the “% of phagocytosing granulocytes” value [1, 4] was 28.6% and 32.3% and 32.6%, the “% of phagocytosing monocytes” value [1, 4] was 36.8% and 30.9% and 39.8% and the “% of phagocytosing granulocytes” value [1, 5] was 31.2%. For the same molecule, the “% of phagocytosing monocytes” value [1, 5] was 35.8%, the “Effect on phagocytosis in monocytes and granulocytes (in words)” value ([1]; peripheral blood, versus PBS control) was “strongly stimulate phagocytosis” and the “% of phagocytosing macrophages” value (peritoneal macrophages; individual values, cells with six or more engulfed HEMA particles positive) was 46.2% and 51.5% and 44.5%. For the same molecule, the “% of phagocytosing macrophages” value (peritoneal macrophages; mean, six or more engulfed HEMA particles) was 47.4%, the “Effect on phagocytosis of peritoneal macrophages (in words)” value (peritoneal macrophages; peritoneal cells, versus PBS control) was “strongly stimulate phagocytosis” and the “% of granulocytes” value ([2]; individual values) was 33.2% and 34.4% and 30.1%. For the same molecule, the “% of lymphocytes” value ([2]; individual values) was 57.7% and 55.6% and 61.4%, the “% of monocytes” value ([2]; individual values) was 9.1% and 10.0% and 8.5% and the “% of granulocytes” value ([2]; mean) was 32.6%. The “% of lymphocytes” value ([2]; mean) was 58.2%, the “% of monocytes” value ([2]; mean) was 9.2% and the “Effect on number of granulocytes in the peripheral blood (in words)” value ([2]; versus PBS control) was “increase the number of granulocytes”. For the same molecule, the “% of lymphocytes” value ([3]; individual values) was 45.9% and 50.4% and 44.1%, the “% of macrophages” value ([3]; individual values) was 41.2% and 43.6% and 46.8% and the “% of mast cells” value ([3]; individual values) was 12.9% and 6.0% and 9.1%. The “% of lymphocytes” value ([3]; mean) was 46.8%, the “% of macrophages” value ([3]; mean) was 43.9% and the “% of mast cells” value ([3]; mean) was 9.3%. The “Effect on migration of macrophage into the peritoneal cavity (in words)” value ([3]; versus PBS control) was “stimulate the migration of macrophage”, the “Concentration of TNF alpha in blood of treated mice” value (“Concentration of TNF alpha” below) (TNF-alpha; 50 μg/mouse i.p., 30 min) was 55.7 pg/mL and the “Concentration of TNF alpha” value (TNF-alpha; 50 μg/mouse i.p., 60 min) was 103.0 pg/mL. For the same molecule, the “Concentration of TNF alpha” value (TNF-alpha; 50 μg/mouse i.p., 90 min) was 35.3 pg/mL, the “Concentration of TNF alpha” value (TNF-alpha; 100 μg/mouse i.p., 30 min) was 39.0 pg/mL and the “Concentration of TNF alpha” value (TNF-alpha; 100 μg/mouse i.p., 60 min) was 18.4 pg/mL. The “Concentration of TNF alpha” value (TNF-alpha; 100 μg/mouse i.p., 90 min) was 13.6 pg/mL, the “Concentration of TNF alpha” value (TNF-alpha; 250 μg/mouse i.p., 30 min) was 27.3 pg/mL and the “Concentration of TNF alpha” value (TNF-alpha; 250 μg/mouse i.p., 60 min) was 152.3 pg/mL. The “Concentration of TNF alpha” value (TNF-alpha; 250 μg/mouse i.p., 90 min) was 11.1 pg/mL, the TNF-alpha level (Table 6, same experiments as Table 5) (TNF-alpha; 24 hours) was 28.1 pg/mL and the TNF-alpha level (Table 6, same experiments as Table 5) (TNF-alpha; 48 hours) was 35.9 pg/mL. The “Relative activity on TNF-alpha level (in words)” value (TNF-alpha; comparison between substances, Table 6, 24 and 48 h) was “more active than yest derived glucan (Lentinan)” and the “Increase of TNF-alpha secretion compared with Lentinan (in words)” value (TNF-alpha; low doses, indirect activation of macrophages and cytotoxic T lymphocytes) was “significantly higher”.
